Experimental data as given in ChEMBL document CHEMBL2331077, “Sacchathridine A, a prostaglandin release inhibitor from Saccharothrix sp” (J Nat Prod, 2013).
pIC50: −log10 of the molar value. Calls of active or inactive are those of the source. The rule behind the calls is not given here.

Columns and labels:
[1] = test system: SW982; assay: Growth inhibition of human SW982 cells up to 30 uM after 48 hrs by cell counting; format: functional, cell-based
[2] = test system: SW982; assay: Inhibition of PGE2 release from bradykinin-stimulated human SW982 cells by fluorescence assay; format: functional, cell-based

pIC50 [2] | Compound | growth inhibition (GI) [1] | inhibition [2]
6.00 | COC1=C(C)C(=O)c2ccc(O[C@@H]3O[C@@H](C)[C@H](O)[C@@H](O)[C@H]3O)c(NNC(C)=O)c2C1=O [SACCHATHRIDINE A] | inactive | Dose-dependent effect
7.48 | CS(=O)(=O)c1ccc(-n2nc(C(F)(F)F)cc2-c2ccc(F)cc2)cc1 [SC-58125] |  | 
